Experiment: Modulation of p-gp (unknown origin) transfected in human MDA435/LCC6MDR cells assessed as reversal of paclitaxel resistance

Row | EC50 [nM] | Structure (SMILES)
1 | 110 | COc1ccc(C2=C(c3cc(OC)c(OC)c(OC)c3)C(=O)N(CC(=O)c3ccc(OCc4ccccc4)c(OC)c3)C2=O)cc1OC
2 | 94 | COc1ccc(C2=C(c3ccc(OC)c(OC)c3)C(=O)N(CC(=O)c3ccc(OCc4ccccc4)c(OC)c3)C2=O)cc1OC

From BindingDB's records for doi:10.1021/jm400930e (Ocean University of China, 2013)
